Test results taken from patent US20110020849A1, “BIOMARKERS FOR DIAGNOSTIC AND THERAPEUTIC METHODS” (Wayne State University, priority 2007, published 2011).

Legend:
rabbit RBCs = experiment: Deformation-induced ATP release from rabbit RBCs pumped through microbore tubing (luciferin/luciferase chemiluminescence); type: cell-based
Description: (§1) Preparation of RBCs. Rabbits (New Zealand whites, males, 2.0-2.5 kg) were anesthetized with ketamine ([…], i.m.) and xylazine (1 mg/kg, i.m.) followed by pentobarbital sodium (15 mg/kg i.v.). A cannula was placed in the trachea and the animals were ventilated with room air. A catheter was placed into a carotid artery for administration of heparin and for phlebotomy. After heparin (500 units, i.v.), the animals were exsanguinated. Human blood was obtained by venipuncture without the use of a tourniquet (antecubital fossa) and collected into a heparinized syringe. Blood was centrifuged at 500×g at 4° C. for 10 min. The plasma and buffy coat were discarded. The RBCs were resuspended and washed three times in a physiological salt solution [PSS, containing in mM: 4.7 KCl, 2.0 CaCl2, 140.5 NaCl […], 21.0 tris(hydroxymethyl)aminomethane, 11.1 dextrose with 5% bovine serum albumin (final pH 7.4)]. Cells were prepared on the day of use and experiments were finished within 8 hours of removal from the animal or human subjects. All procedures were approved by the Animal Investigation Committee or the Human Investigation Committee at Wayne State University.
(§2) Measurement of ATP. Human C-peptide (American Peptide Co., Sunnyvale, Calif.), 0.25 mg (MW=3020 g/mol), was dissolved in […] of purified water (18.2 megaohm) to yield a concentration of 83 μM. […] The resulting chemluminescence reaction flowed through a final potion of fused-silica microbore tubing that was placed over a photomultiplier tube, where the emission was detected. The resultant current was measured as a potential by a data acquisition board operated by a program written with the LabView software package (National Instruments, Austin, Tex.).
Introduction. […] Upon deformation in the tubing, the RBCs release ATP that is measured using a well-established chemiluminescence assay for ATP. The concentrations of RBC-derived ATP are measured in the presence and absence of synthetic C-peptide.
C-Peptide-Induced Release of ATP. RBCs obtained from rabbits are pumped through microbore tubing having an inside diameter of 50 μm and the resultant ATP released by the cells upon deformation in the tubing is measured. […] Another aliquot from the same RBC sample is incubated in 1 nM C-peptide and the resultant ATP release measured every 2 h for a period up to 6 h. […] As shown, the ATP release (determined by a chemiluminescence assay) from those cells incubated in the c-peptide increased approximately 2.9 times over a period of […]. […] If cell lysis were occurring, the glybenclamide would have no affect on the measured ATP as it would be present in extracellular form whether or not glybenclamide was introduced to the RBCs. […]

RBCs [1] = experiment: Cell lysis control: RBC solutions measured under non-flow conditions with a luminometer; type: cell-based; details: 200 μL RBC solution and 200 μL luciferin/luciferase solution
Description: To ensure that the resulting increase in ATP release was due to C-peptide interacting with the RBCs and not cell lyses, the RBC solutions were measured under non-flow conditions using a luminometer with 200 μL of the RBC solution and 200 μL of the luciferin/luciferase solution. […] To ensure that lysis was not occurring in the tubing, a solution of 0.01 M glybenclamide was prepared by adding 49 mg of glybenclamide (Sigma) to 2 mL of a 0.1 M solution of sodium hydroxide. To this, 7.94 mL of a dextrose solution (1 g dextrose in 20 mL of purified water) was added. The mixture was heated carefully to 52° C. until all of the glybenclamide was dissolved. Once the solute was completely dissolved, 1 mL of this solution was added to 9 mL of PSS, resulting in a solution with a concentration 0.001 M. From this diluted solution, 2.5 mL were added to 2.5 mL of 7% hematocrit RBC solution, resulting in a 3.5% hematocrit solution of RBCs. This solution was allowed to incubate for 15 minutes. As a comparison, 2.5 mL of wash buffer without glybenclamide was added to 2.5 mL of 7% hematocrit RBCs. After 15 minutes, the RBC solutions were assayed.

diabetic human RBCs = experiment: ATP release from RBCs of patients with type II diabetes; type: cell-based; details: n=7; for ATP release: diabetic human RBCs, ±SEM, FIG. 2
Description: as §1
as §2, with “μM. Next, an appropriate volume of this C-peptide solution was added to 10 mL of a 7% solution of RBCs to create a solution containing the C-peptide at concentrations in the 1-5 nM range.” for “μM.”, “Tex.). […]” for “Tex.).”

RBCs [2] = experiment: Loss of ATP-release bioactivity of C-peptide preparation in water (repeats of Experiments 1 and 2); type: cell-based
[3] = Electrospray ionization mass spectrometry of C-peptide and metal adducts in aqueous solution; details: ESI-MS
Description: Mass Spectrometric Analysis of Metal-Peptide Binding.
Specifically, the mass spectrum shown in FIG. 3a is that of peptide prepared in water and analyzed within 0.5 h of preparation. In 3a, the [M+3H]^3+ peak is present as are other forms of the peptide with sodium atoms, potassium atoms, or a combination thereof.

Row | Molecule | effect on the C-peptide-induced increase in ATP release (rabbit RBCs; RBCs incubated in glybenclamide) | ability to induce ATP release from deformed RBCs (rabbit RBCs; C-peptide solution kept at 4° C. for >30 days) | increase in ATP release (rabbit RBCs; rabbit RBCs, 1 nM C-peptide, over a period of 8 h, normalized values, FIG. 1) | increase in ATP release versus control (buffer without C-peptide) (rabbit RBCs; rabbit RBCs, 1 nM C-peptide, over the 6 h period) | luminescence signal under non-flow conditions (cell lysis check) (RBCs [1]) | restoration of ATP release levels (diabetic human RBCs; RBCs of patients with type II diabetes, compared with healthy non-diabetic controls) | ATP release (diabetic human RBCs; after 6 hours of incubation with freshly prepared C-peptide preparation) | ATP release (diabetic human RBCs; at 0 hours, freshly prepared C-peptide preparation) | time to loss of bioactivity after preparation in water (RBCs [2]) | time in solution without degradation or cleavage [3]
1 | COc1ccc(Cl)cc1C(=O)NCCc1ccc(S(=O)(=O)NC(=O)NC2CCCCC2)cc1 [glybenclamide] | can be inhibited | – | – | – | – | – | – | – | – | –
2 | C-peptide | – | no longer has the ability to induce ATP release from deformed RBCs | approximately 2.9 times | nearly three times that of the RBCs incubated with a control | No detectable signals were obtained | restore these release levels to a value that is statistically equivalent to that of healthy, non-diabetic control patients | 256.1 ± 38.7 nM | 63.6 ± 12.6 nM | 24 to 36 h | > 30 days
